Activity calls are given as the source filed them.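 Rule for the calls: active = an EC50 below a set limit for the caspase 9 and 3 cleavage signal; inactive = the rest.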
Molecular target: Caspase-3 (Homo sapiens) + Caspase-9 (Homo sapiens) (UniProt P42574+P55211)
Assay: activation of LZ-caspase-9 coupled caspase-3 activity – biochemical, fluorescence, LZ-caspase-9 mutant, selectivity assay for Apaf-1 activator project, SAR follow-up (AID 588576)
Settings: recombinant LZ-caspase-9/procaspase-3, DEVD-Rh110 fluorescence, 55 min

Chain of Caspase-3 (Homo sapiens) + Caspase-9 (Homo sapiens) (P42574 whole entry, looked up): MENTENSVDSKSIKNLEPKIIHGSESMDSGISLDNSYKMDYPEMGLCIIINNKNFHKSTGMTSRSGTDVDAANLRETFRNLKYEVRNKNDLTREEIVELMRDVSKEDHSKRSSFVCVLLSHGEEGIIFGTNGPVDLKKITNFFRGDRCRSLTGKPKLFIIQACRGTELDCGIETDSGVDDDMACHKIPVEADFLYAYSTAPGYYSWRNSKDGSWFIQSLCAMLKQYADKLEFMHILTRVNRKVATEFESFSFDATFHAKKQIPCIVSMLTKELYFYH
Chain of Caspase-3 (Homo sapiens) + Caspase-9 (Homo sapiens) (P55211 whole entry, looked up): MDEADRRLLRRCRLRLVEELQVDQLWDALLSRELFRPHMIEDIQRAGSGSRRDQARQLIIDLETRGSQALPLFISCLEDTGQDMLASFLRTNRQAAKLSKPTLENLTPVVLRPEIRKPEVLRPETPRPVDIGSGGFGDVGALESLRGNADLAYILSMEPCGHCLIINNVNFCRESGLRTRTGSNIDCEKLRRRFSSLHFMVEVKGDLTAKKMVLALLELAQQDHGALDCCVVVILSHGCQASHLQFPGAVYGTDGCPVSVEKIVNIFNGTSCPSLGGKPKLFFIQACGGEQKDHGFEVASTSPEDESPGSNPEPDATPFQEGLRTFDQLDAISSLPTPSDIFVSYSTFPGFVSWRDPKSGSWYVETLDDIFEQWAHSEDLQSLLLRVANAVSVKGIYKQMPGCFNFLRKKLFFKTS

EC50 | Structure (SMILES)
> 100 µM (inactive) | Cc1cc(C)n(C(C)CC(=O)Nc2cccnc2)n1 (configuration not stated)
> 100 µM (inactive) | Cc1cc(C)n(CC(C)C(=O)Nc2ccc(Cl)c(Cl)c2)n1 (configuration not stated)
> 100 µM (inactive) | O=C(Nc1nc2ccsc2c(=O)s1)c1ccco1
> 100 µM (inactive) | Cc1cc(NC(=O)C2CC(c3ccc(F)cc3)=NO2)n(-c2ccccc2)n1 (configuration not stated)
> 100 µM (inactive) | CC(Cc1c[nH]c2ccccc12)C(=O)O (configuration not stated)
> 100 µM (inactive) | Cc1c(NC(=O)C2CC(c3ccc(F)cc3)=NO2)c(=O)n(-c2ccccc2)n1C (configuration not stated)
> 100 µM (inactive) | CCOc1ccccc1NC(=O)CCS(=O)(=O)c1ccc2c(c1)OCCO2
> 100 µM (inactive) | Cc1nn(CC(C)C(=O)O)c(C)c1Br (configuration not stated)
> 100 µM (inactive) | O=C1CC2(CC(c3c(F)cccc3Cl)=NO2)C(=O)N1c1ccccc1 (configuration not stated)
> 100 µM (inactive) | O=C(Nc1nc2ccsc2c(=O)s1)C1CCC1
> 100 µM (inactive) | Cc1nn(Cc2ccccc2)c(C)c1CCC(=O)O
> 100 µM (inactive) | O=C(Nc1ccc(F)cc1F)C1CC(c2ccc(F)cc2)=NO1 (configuration not stated)
> 100 µM (inactive) | Cc1cc(C)c(O)c(N2CC(C(=O)O)CC2=O)c1 (configuration not stated)
> 100 µM (inactive) | O=C(O)C1CC(c2ccc(F)cc2)=NO1 (configuration not stated)
> 100 µM (inactive) | O=C(Nc1nc2ccsc2c(=O)s1)c1cccs1
> 100 µM (inactive) | O=C(c1ccco1)N1CCN(C(=O)C2CC(c3ccc(F)cc3)=NO2)CC1 (configuration not stated)
> 100 µM (inactive) | Cc1cc(C)n(C(C)C(C)C(=O)O)n1 (configuration not stated)

— PubChem BioAssay AID588576 (Sanford-Burnham Center for Chemical Genomics, 2011)
